Assay results reported in US20180221352A1, “3-(1H-PYRROLO[2,3-C]PYRIDIN-2-YL)-1H-PYRAZOLO[3,4-B]PYRIDINES AND THERAPEUTIC USES THEREOF” (Samumed, LLC, priority 2015, published 2018).

Columns and labels:
Assay type in all cases: cell-based
[1] = test system: Wnt activity (Sp5-Luc reporter, SW480 colon carcinoma cells); experiment: Wnt activity screening assay, Sp5-Luc reporter gene in SW480 cells; conditions: Homo sapiens; for EC50: Sp5-Luc reporter, SW480 cells, overnight incubation; for inhibition at 10 µM: SW480, read-out: percent inhibition at 10 μM
Outline: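 SW480 cells stably carrying a luciferase reporter driven by an Sp5 promoter with eight TCF/LEF sites, plated overnight in 1% FBS medium at 37 °C. Luminescence read with BrightGlo. Signals normalized to DMSO-treated cells; EC50 from four-parameter variable-slope fit.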

SW480 colon cancer cells = experiment: Cell viability assay (CellTiter-Blue); conditions: Homo sapiens; for EC50: 96 h, SW480 cell viability, four days; for inhibition at 10 µM: SW480, 96 h, read-out: percent inhibition at 10 μM
Outline: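 Fluorescence from resazurin reduced to resorufin by metabolically active cells was the read-out, taken after ~3 h with CellTiter-Blue.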

[2] = test system: primary human fibroblasts derived from IPF patients (LL29 cells); experiment: Inhibition of fibrotic process, αSMA staining in TGF-β1 treated fibroblasts; conditions: Fibroblast; for EC50: 96 h, LL29 cells, TGF-β1 20 ng/mL, 4 days, % αSMA positive cells
Outline: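 LL29 fibroblasts plated in F12 with 1% FBS were stimulated with TGF-β1 alongside compound, with TGF-β1 plus DMSO wells as controls. After 4 days of incubation, SYTOX green was added at 1 μM final for 30 min at room temperature.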

[3] = test system: primary human mesenchymal stem cells (hMSCs); experiment: Induction of chondrogenesis in hMSCs (nodule count); conditions: 6 days; for EC50: concentration required to induce 50% levels of chondrogenesis vs TGF-β3, read-out: Conc (nM) of 50% TGF-β3 activity; for Emax: relative to TGF-β3 (10 ng/mL) positive control, read-out: Max. Activity as % TGF-β3 activity
IL-6 = IL-6 inhibition in LPS-stimulated THP-1 cells (HTRF); conditions: Homo sapiens; for EC50: THP-1 cells, LPS 500 ng/mL, 22 hours, IL6 HTRF; for inhibition at 10 µM: THP-1, read-out: percent inhibition at 10 μM
Outline: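 Serum-reduced (1% FBS, 24 h) THP-1 cells, 5000/well, exposed to compound 2 h at 37 °C, then stimulated with 500 ng/mL LPS for 22 h. Secreted IL-6 measured by HTRF (665/620 ratio), normalised to DMSO; EC50 by four-parameter fit, duplicates.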

Row | Compound | EC50 [1] | EC50 (SW480 colon cancer cells) | EC50 [2] | EC50 [3] | Emax [3] | EC50 (IL-6) | inhibition at 10 µM [1] | inhibition at 10 µM (SW480 colon cancer cells) | inhibition at 10 µM (IL-6) | inhibition at 10 µM ([2]; read-out: percent inhibition at 10 μM)
1 | CCC(=O)Nc1cncc(-c2cnc3[nH]nc(-c4cc5c(-c6cccc(F)c6)cncc5[nH]4)c3c2)c1 [Compound 1, N-(5-(3-(4-(3-Fluorophenyl)-1H-pyrrolo[2,3-c]pyridin-2-yl)-1H-pyrazolo [3,4-b]pyridin-5-yl)pyridin-3-yl)propionamide] | 246 nM | 771 nM | 859 nM | 10 nM | 113% | 1180 nM | – | – | – | –
2 | CC(C)(C)CC(=O)Nc1cncc(-c2cnc3[nH]nc(-c4cc5c(-c6cccnc6)cncc5[nH]4)c3c2)c1 [Compound 100, 3,3-Dimethyl-N-(5-(3-(4-(pyridin-3-yl)-1H-pyrrolo[2,3-c]pyridin-2-yl)-1H-pyrazolo[3,4-b]pyridin-5-yl)pyridin-3-yl)butanamide] | > 10000 nM | > 10000 nM | 1910 nM | – | 37% | 647 nM | 17.3% | 18.4% | – | –
3 | O=C(Nc1cncc(-c2cnc3[nH]nc(-c4cc5ccncc5[nH]4)c3c2)c1)C1CCCCC1 [Compound 275, N-(5-(3-(1H-Pyrrolo[2,3-c]pyridin-2-yl)-1H-pyrazolo[3,4-b]pyridin-5-yl)pyridin-3-yl)cyclohexanecarboxamide] | 3580 nM | 3430 nM | 1700 nM | 2700 nM | 291% | 395 nM | – | – | – | –
4 | Fc1ccc(-c2cncc3[nH]c(-c4n[nH]c5ncc(-c6cncnc6)cc45)cc23)cc1 [Compound 55, 3-(4-(4-Fluorophenyl)-1H-pyrrolo[2,3-c]pyridin-2-yl)-5-(pyrimidin-5-yl)-1H-pyrazolo[3,4-b]pyridine] | 594 nM | 1130 nM | 854 nM | – | 24% | > 10000 nM | – | – | 29.8% | –
5 | CCCC(=O)Nc1cncc(-c2cnc3[nH]nc(-c4cc5c(-c6cc(F)cc(CNS(C)(=O)=O)c6)cncc5[nH]4)c3c2)c1 [Compound 493, N-(5-(3-(4-(3-Fluoro-5-(methylsulfonamidomethyl)phenyl)-1H-pyrrolo[2,3-c]pyridin-2-yl)-1H-pyrazolo[3,4-b]pyridin-5-yl)pyridin-3-yl)butyramide] | 1680 nM | > 10000 nM | 8900 nM | – | 37% | 93 nM | – | 46.1% | – | –
6 | Fc1ccccc1-c1cncc2[nH]c(-c3n[nH]c4ncc(-c5cn[nH]c5)cc34)cc12 [Compound 539, 3-(4-(2-Fluorophenyl)-1H-pyrrolo[2,3-c]pyridin-2-yl)-5-(1H-pyrazol-4-yl)-1H-pyrazolo[3,4-b]pyridine] | 416 nM | 652 nM | 99 nM | 100 nM | 51% | 169 nM | – | – | – | –
7 | Fc1cccc(-c2cncc3[nH]c(-c4n[nH]c5ncc(-c6cccnc6)cc45)cc23)c1 [Compound 4, 3-(4-(3-Fluorophenyl)-1H-pyrrolo[2,3-c]pyridin-2-yl)-5-(pyridin-3-yl)-1H-pyrazolo[3,4-b]pyridine] | 572 nM | 1070 nM | 1010 nM | – | 36% | 232 nM | – | – | – | –
8 | CC(C)Nc1cncc(-c2cnc3[nH]nc(-c4cc5c(-c6cccc(F)c6)cncc5[nH]4)c3c2)c1 [Compound 12, 5-(3-(4-(3-Fluorophenyl)-1H-pyrrolo[2,3-c]pyridin-2-yl)-1H-pyrazolo[3,4-b]pyridin-5-yl)-N-isopropylpyridin-3-amine] | 238 nM | 851 nM | 713 nM | 900 nM | 104% | 148 nM | – | – | – | –
9 | FC1(F)CCN(Cc2cncc(-c3cnc4[nH]nc(-c5cc6c(-c7ccncc7)cncc6[nH]5)c4c3)c2)C1 [Compound 138, 5-(5-((3,3-Difluoropyrrolidin-1-yl)methyl)pyridin-3-yl)-3-(4-(pyridin-4-yl)-1H-pyrrolo[2,3-c]pyridin-2-yl)-1H-pyrazolo[3,4-b]pyridine] | > 10000 nM | > 10000 nM | 875 nM | – | 37% | 486 nM | 40.8% | 24.1% | – | –
10 | CS(=O)(=O)NCc1cc(F)cc(-c2cncc3[nH]c(-c4n[nH]c5ncc(-c6cncc(NC(=O)C7CC7)c6)cc45)cc23)c1 [Compound 496, N-(5-(3-(4-(3-Fluoro-5-(methylsulfonamidomethyl)phenyl)-1H-pyrrolo[2,3-c]pyridin-2-yl)-1H-pyrazolo[3,4-b]pyridin-5-yl)pyridin-3-yl)cyclopropanecarboxamide] | 2630 nM | > 10000 nM | 3530 nM | – | 23% | 93 nM | – | 49.3% | – | –
11 | CCCCC(=O)Nc1cncc(-c2cnc3[nH]nc(-c4cc5c(-c6ccncc6)cncc5[nH]4)c3c2)c1 [Compound 131, N-(5-(3-(4-(Pyridin-4-yl)-1H-pyrrolo[2,3-c]pyridin-2-yl)-1H-pyrazolo[3,4-b]pyridin-5-yl)pyridin-3-yl)pentanamide] | > 10000 nM | > 10000 nM | > 10000 nM | 10 nM | 70% | > 10000 nM | 3.4% | 18.9% | 24.5% | 27.9%
12 | Fc1cccc(-c2cncc3[nH]c(-c4n[nH]c5ncc(-c6cncc(CNCc7ccccc7)c6)cc45)cc23)c1 [Compound 24, N-Benzyl-1-(5-(3-(4-(3-fluorophenyl)-1H-pyrrolo[2,3-c]pyridin-2-yl)-1H-pyrazolo[3,4-b]pyridin-5-yl)pyridin-3-yl)methanamine] | 3920 nM | 2800 nM | 1280 nM | 900 nM | 65% | 2090 nM | – | – | – | –
